Test results published in the supplement of paper PMC9663587.

Legend:
Assay in all cases: area over the GR curve, 72 h; higher = more effect;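 further: Dye Drop or Deep Dye Drop imaging of viable cells in 384-well plates (Hoechst nuclei, LIVE/DEAD dye), nine half-log doses, GR normalized to DMSO controls and time-zero plates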
EVSAT = system: EVSAT
BT549 = system: BT549
UACC812 = system: UACC812
HCC1806 = system: HCC1806
SUM185PE = system: SUM185PE
MDAMB361 = system: MDAMB361
HCC1937 = system: HCC1937
PDX1328 = system: PDX1328
MDAMB453 = system: MDAMB453
HCC1395 = system: HCC1395
ZR751 = system: ZR751
MDAMB330 = system: MDAMB330

CC1(N)CCN(c2cnc(-c3cccc(Cl)c3Cl)c(N)n2)CC1 [SHP099] (max 10 µM)
area over the GR curve (EVSAT): -0.0008 GR
area over the GR curve (BT549): 0.0349 GR
area over the GR curve (UACC812): 0.151 GR
area over the GR curve (HCC1806): -0.0155 GR
area over the GR curve (SUM185PE): 0.176 GR
area over the GR curve (MDAMB361): 0.13 GR
area over the GR curve (HCC1937): 0.0653 GR
area over the GR curve (PDX1328): 0.0593 GR
area over the GR curve (MDAMB453): 0.0286 GR
area over the GR curve (HCC1395): 0.0738 GR
area over the GR curve (ZR751): 0.0364 GR
area over the GR curve (MDAMB330): 0.121 GR
